In publication PMC11905058, “Novel Leech Antimicrobial Peptides, Hirunipins: Real‐Time 3D Monitoring of Antimicrobial and Antibiofilm Mechanisms Using Optical Diffraction Tomography” (Advanced Science, 2025):
Converted amounts (≈) assume the structure as drawn.

Experiments:
S. aureus (KCTC 1621) [1] = assay: Membrane depolarization assay (diSC3-5); assay type: cell-based, Staphylococcus aureus; conditions: diSC3-5 fluorescence, monitored 500 s
Method: The FL dye diSC3‐5 (3,3′‐dipropylthiadicarbocyanine iodide) was utilized to assess the depolarizing impact of peptides on the cytoplasmic membrane of S. aureus (KCTC 1621), following a previously established method.^[ [26], [27] ^]
Membrane Depolarization Assay: Briefly, mid-log phase S. aureus (KCTC 1621) was harvested and washed three times with 5 mM HEPES buffer (pH 7.4, containing 20 mM glucose), and resuspended to an OD600 of 0.05 in the same buffer. The cell suspension was incubated with 0.4 μM diSC3-5 for 90 min such that most of the dye molecules gathered at the cytoplasmic membrane. To equilibrate the cytoplasmic and external K^+ concentrations, KCl was added to the cell suspension containing diSC3-5 to obtain a final concentration of 100 mM, followed by incubating the cells at room temperature for 15−30 min, with peptide aliquots added to 2 mL of suspension. The fluorescence was recorded using a model RF-5301 PC fluorescence spectrophotometer (Shimadzu) at an excitation wavelength of 622 nm and an emission wavelength of 670 nm.

E. coli (KCTC 1682) [2] = assay: PI influx assay by flow cytometry; assay type: cell-based, Escherichia coli; conditions: 16 µg mL^−1, 60 min, 37 °C, PI 10 µg/mL, untreated 6.9%
Method: (§1) Damage to membrane integrity induced by the peptides was evaluated by flow cytometry of E. coli (KCTC 1682) and S. aureus (KCTC 1621) cells stained with the membrane‐impermeable dye PI, as previously described.^[ [26], [27] ^]
(§2) Flow Cytometry Analysis: E. coli (KCTC 1682) and S. aureus (KCTC 1621) were cultured in LB broth until they reached mid-log-phase, then washed and resuspended in PBS to a density of 2 × 10^5 CFU/mL. The bacterial suspension was incubated with the samples and 10 µg/mL of propidium iodide (PI), a fluorescent dye, at 37 °C for 1 hour in the dark. The samples were then centrifuged and washed twice in PBS to remove any excess dye. The fluorescence of PI, which indicates membrane damage, was measured by FACS flow cytometer (Agilent, ACEA Bioscience Inc.) using a laser excitation wavelength of 488 nm.

S. aureus (KCTC 1621) [3] = assay: PI influx assay by flow cytometry; assay type: cell-based, Staphylococcus aureus; conditions: 16 µg mL^−1, 60 min, 37 °C, PI 10 µg/mL, untreated 9.5%
Method: as §1, §2

[4] = tested on: Staphylococcus epidermidis [KCTC 1917]; assay type: cell-based; conditions: CLSI broth microdilution in MHB, 1×10^6 CFU/well, 37 °C, 24 h, optical density
Method: (§3) The MICs of the peptides were measured by the Clinical and Laboratory Standards Institute (CLSI) broth microdilution method, as outlined in a previous study.^[ [26], [27] ^]
(§4) Minimal Inhibitory Concentrations (MICs): Bacteria were grown to mid-logarithmic phase and diluted in Mueller-Hinton broth (MHB) (Difco). The bacterial suspension (1×10^6 CFU/well) was added to a 96-well microtiter plate along with a two-fold serial dilution of samples. The plate was incubated at 37 °C for 24 hours and the bacterial growth inhibition was assessed by measuring the optical density using an ELISA plate reader. The minimum inhibitory concentration (MIC) was defined as the lowest concentration of samples that prevented visible bacterial growth.

[5] = tested on: Pseudomonas aeruginosa [KCTC 1637]; assay type: cell-based; conditions: CLSI broth microdilution in MHB, 1×10^6 CFU/well, 37 °C, 24 h, optical density
Method: as §3, §4

[6] = tested on: Escherichia coli [KCTC 1682]; assay type: cell-based; conditions: CLSI broth microdilution in MHB, 1×10^6 CFU/well, 37 °C, 24 h, optical density
Method: as §3, §4

[7] = tested on: Staphylococcus aureus [KCTC1621]; assay type: cell-based; conditions: CLSI broth microdilution in MHB, 1×10^6 CFU/well, 37 °C, 24 h, optical density
Method: as §3, §4

MDRE (328-84) = assay type: cell-based, Enterobacter cloacae; conditions: clinically isolated multidrug-resistant Enterobacter cloacae; broth microdilution
Method: as §3
Microbial Strains and Cell Lines: Multiple bacterial strains were used in this study. Standard stains included Escherichia coli (KCTC 1682), Pseudomonas aeruginosa (KCTC 1637), Staphylococcus aureus (KCTC1621) and Staphylococcus epidermidis (KCTC 1917) supplied from the Korean Collection for Type Cultures (KCTC) of the Korea Research Institute of Bioscience and Biotechnology (KRIBB). Clinically isolated multidrug-resistant bacteria included multidrug-resistant Klebsiella pneumonia (MDRKP 328-83), multidrug-resistant Acinetobacter baumannii (MDRAB 329-53), multidrug-resistant Pseudomonas aeruginosa (MDRPA 314-69), multidrug-resistant Enterobacter cloacae (MDRE 328-84) and multidrug-resistant Escherichia coli (MDREC 329-66) provided from Hospital of Chosun University, Korea. All bacterial strains were stored in 20% glycerol at −80 °C. For the subsequent experiments, the bacteria were recovered and cultured in the corresponding enrichment broth at 37 °C. The mouse macrophage RAW264.7, mouse fibroblast NIH-3T3 and human keratinocyte HaCat cells were cultured in Dulbecco’s modified Eagle’s medium (DMEM), supplemented with 10% (v/v) of fetal bovine serum (Sigma-Aldrich), 100 U/mL of penicillin and 0.1 mg/mL of streptomycin, at 37 °C in the presence of 5% CO2
as §4

E. coli (KCTC 1682) [8] = assay: Multipassage drug resistance study; assay type: cell-based, Escherichia coli; conditions: continuous exposure at sub-MIC (0.5×MIC)
Method: The MICs of hirunipin 2 and antibiotics were determined, and the concentration of each sub‐MIC (0.5×MIC) of E. coli (KCTC 1682) was diluted to 1 × 10^6 CFU mL^−1 with MHB for the next passaged MIC determination. This procedure was repeated fifteen times. Ciprofloxacin and tetracycline were used as the controls.

MDRAB (329-53) = tested on: MDRAB (329-53)
Method: Synergy testing by checkerboard assay: Briefly, each 96-well microtiter plate was inoculated with two-fold serial dilutions of two antibiotics, ranging from 1/8 MIC to 2 MIC, such that one antibiotic was inoculated in the columns and the other in the rows. Then, MDRAB (329-53) cells were inoculated at a concentration of 1× 10^6 CFU/mL. The plates were incubated overnight under static conditions and observed visually.

[9] = antibiotic in combination with hirunipin 2
[10] = in combination with hirunipin 2

| Molecule | effect on membrane potential (in words) (S. aureus (KCTC 1621) [1]) | percentage of PI-positive cells, E. coli (KCTC 1682) (E. coli (KCTC 1682) [2]) [%] | percentage of PI-positive cells, S. aureus (KCTC 1621) (S. aureus (KCTC 1621) [3]) [%] | Minimum inhibitory concentration (MIC), Staphylococcus epidermidis [KCTC 1917] [4] [µg/mL] | Minimum inhibitory concentration (MIC), Pseudomonas aeruginosa [KCTC 1637] [5] [µg/mL] | Minimum inhibitory concentration (MIC), Escherichia coli [KCTC 1682] [6] [µg/mL] | Minimum inhibitory concentration (MIC), Staphylococcus aureus [KCTC1621] [7] [µg/mL] | Minimum inhibitory concentrations, MDRE (328-84) (MDRE (328-84)) [µg/mL] | fold-change in the MICs after 15 passages (E. coli (KCTC 1682) [8]) [fold] | FICI: fractional inhibitory concentration index, FICA + FICB (MDRAB (329-53); [9]) | Interpretation of FICI (MDRAB (329-53); [9]) | MICA: MIC of antibiotic alone (MDRAB (329-53); checkerboard, MDRAB, 1×10^6 CFU/mL) [µg/mL] | FICA: fractional inhibitory concentration of antibiotic ([A] / MICA) (MDRAB (329-53); [10]) | [A]: MIC of antibiotic in combination (MDRAB (329-53); [10]) [µg/mL] |
| --- | --- | --- | --- | --- | --- | --- | --- | --- | --- | --- | --- | --- | --- | --- |
| Buforin‐2 [Buforin-2] | did not affect membrane potential | 7.6 | 9.6 |  |  |  |  |  |  |  |  |  |  |  |
| CC[C@H](C)[C@H](NC(=O)CN)C(=O)NCC(=O)N[C@@H](C)C(=O)N[C@H](C(=O)N[C@@H](CC(C)C)C(=O)N[C@@H](CCCCN)C(=O)N[C@H](C(=O)N[C@@H](CC(C)C)C(=O)N[C@H](C(=O)N[C@H](C(=O)NCC(=O)N[C@@H](CC(C)C)C(=O)N1CCC[C@H]1C(=O)N[C@@H](C)C(=O)N[C@@H](CC(C)C)C(=O)N[C@H](C(=O)N[C@@H](CO)C(=O)N[C@@H](Cc1c[nH]c2ccccc12)C(=O)N[C@H](C(=O)N[C@@H](CCCCN)C(=O)N[C@@H](CCCNC(=N)N)C(=O)N[C@@H](CCCCN)C(=O)N[C@@H](CCCNC(=N)N)C(=O)N[C@@H](CCC(N)=O)C(=O)N[C@@H](CCC(N)=O)C(N)=O)[C@@H](C)CC)[C@@H](C)CC)[C@@H](C)O)[C@@H](C)O)C(C)C)C(C)C [Melittin, reference compound] |  | 91.6 | 99.5 | 32 (≈ 11.2 µM) | 32 (≈ 11.2 µM) | 32 (≈ 11.2 µM) | 16 (≈ 5.62 µM) | 64 (≈ 22.5 µM) |  |  |  |  |  |  |
| CN(C)[C@@H]1C(O)=C(C(N)=O)C(=O)[C@@]2(O)C(O)=C3C(=O)c4c(O)cccc4[C@@](C)(O)[C@H]3C[C@@H]12 [TET, Tetracycline] |  |  |  |  |  |  |  |  | 32 | 0.25 | synergy (FICI ≤ 0.5 was interpreted as synergy) | 16 | 0.125 | 2 |
